Literature values as cited in patent publication US10045993B2, “Pharmaceutical preparation containing entecavir as active ingredient, and preparation method therefor” (CTC BIO, INC., priority 2014, dated 2018).

Conditions: pH 7.9, 25° C. (room temperature)

moisture solubility: 2400 µg/mL
SMILES: C=C1[C@H](CO)[C@@H](O)C[C@@H]1n1cnc2c(=O)[nH]c(N)nc21 [Entecavir, [1-S-(1α,3α,4β)]-2-amino-1,9-dihydro-9-[4-hydroxy-3-(hydroxymethyl)-2-methylenecyclopentyl]-6H-purin-6-one]
